Test results from patent US11583555B2, “Genetic re-engineering of immune cells to improve metabolic fitness for immunotherapy” (University of Pittsburgh—Of the Commonwealth System of …, priority 2016, dated 2023).

Tests used:
Assay type in all cases: in vivo
[1] = tested on: tumor infiltrating T cells; assay: m-divi-1 treatment of tumor-bearing mice after OT-I adoptive transfer, mitochondrial staining; details: tumor-bearing mice treated 24 h after adoptive transfer
Method: FIGS. 5A-5E. T cell mitochondrial dysfunction is induced upon entry into the tumor microenvironment. (A) Representative flow cytogram and tabulated data of LN and TIL of naïve, CTV-labeled, OT-I (Thy 1.1^+) CD8^+ T cells transferred into B16^OVA-bearing mice (5-7 mm tumors), or the spleens of the same progenitor cells transferred into B6 mice infected with 1×10^6 PFU VV^OVA for 72 h. Cells were stained with MitoTracker Deep Red FM. (B) As in A, but with the mitochondrial membrane potential dye TMRE. (C) As in A, but with the cellular ROS indicator DCFDA. (D) As in A, but cells were permeabilized and stained intracellularly for LC3B. (E) Representative data from experiments as in A, but some mice received mitophagy inhibitor m-divi-1. Results represent the mean of three or four independent experiments, with n=7-9 mice per group. **p<0.01, ***p<0.001, ***p<0.0001 by two-way ANOVA. Error bars indicate s.e.m.
Single-cell metabolic capacity was assayed by flow cytometry. Specifically, 2-NBD-glucose (Cayman Chemical) and MitoTracker FM dyes (ThermoFisher) were utilized to assay the propensity of cells to take up glucose or generate intermediates via their mitochondria. […]
As mitochondrial depolarization can lead to autophagy, it was determined whether mitophagy may be mediating the loss of mitochondria in tumor-infiltrating T cells.

Akt = Akt inhibitor treatment of B16-bearing mice, PGC1α levels and mitochondrial mass of CD8^+ T cells; details: short-term treatment (72 h)
Method: FIGS. 11A-11H. Intratumoral T cell mitochondrial biogenesis is repressed by chronic Akt-mediated repression of PGC1α (A) Flow cytogram (left) and tabulated data (right) of PGC1α intracellular staining in CD8^+ T cells isolated from nondraining or draining LNs or TIL preparations from B16 or MC38 bearing mice. Shaded histogram indicates isotype control. (B) Flow cytogram of PGC1α expression in CTV-labeled, naïve OT-I T cells adoptively transferred into B16^OVA bearing mice for 72 h. Tabulation for multiple experiments is to the right. (C) Flow cytogram of cytokine production of congenically mismitached WT OT-I T cells transferred into B16^OVA-bearing or VV^OVA-infected mice for 96 h, then restimulated with SIINFEKL peptide. (D) Representative and tabulated phospho-Akt (S473) and phospho-Foxo1 (T24)/3a(T32) staining of the indicated cell populations in mice bearing 14-day B16 tumors. MFI is reported. (E) Representative flow cytogram and tabulated data indicating PGC1α staining in pAkt low or high cells. (F) MFI of pAkt staining in naïve OT-I T cells, or OT-I T cells transferred for 3 or 6 days into a B16^OVA-bearing or VV^OVA infected mouse. […] Results are representative of 5 (A,B, D) 3 (C, E, G, H) or 2 (F) independent experiments. *, p<0.05, **p<0.01, ***p<0.001 by unpaired t-test (A, F, G, H) or paired t-test (D, E, G, H). ***p<0.001 by two-way ANOVA. Error bars indicate s.e.m. […]

[2] = tested on: tumor-infiltrating Treg cells; assay: Treg depletion with diphtheria toxin in B16-bearing Foxp3^DTR.GFP mice; details: 3 days diphtheria toxin

`COc1cc(-n2c(=S)[nH]c3ccccc3c2=O)c(Cl)cc1Cl` [m-divi-1] was tested, and the “mitochondrial staining in tumor infiltrating T cells” value [1] was “failed to improve mitochondrial staining”.
`O=c1[nH]c2ccccc2n1C1CCN(Cc2ccc(-c3nc4cc5[nH]cnc5cc4nc3-c3ccccc3)cc2)CC1` [Akt inhibitor, Akt inhibitor VIII] was tested, and the “PGC1α and mitochondrial sufficiency (metabolically suppressive phenotype)” value (Akt) was “partial rescue of the metabolically suppressive phenotype”.
In the case of diphtheria toxin, the “CD8^+ T cell MitoTracker FM staining” value [2] was “no significant increases in CD8^+ T cell MitoTracker FM staining” and the “depletion of tumor-infiltrating Treg cells” value [2] was “near complete depletion of tumor-infiltrating Treg cells”.
